Measured values from patent publication US20240226098A1, “COMPOUNDS AND METHODS FOR MODULATING SPLICING” (REMIX THERAPEUTICS INC., priority 2020, published 2024).
Structures can show the parent of a compound that is named as a salt.

Tests used:
Type in all cases: cell-based
[1] = test system: HTT mRNA, canonical junction (CJ); assay: Splicing assay (RT-qPCR): decrease in HTT canonical junction (CJ) mRNA; conditions: A673 or K562 cell line, 24 hours treatment, top dose 10 uM; concentration having 50% response in CJ decrease
Procedure: (§1) Compounds described herein were used to modulate RNA transcript abundance in cells. The expression of a target mRNA was measured by detecting the formation of an exon-exon junction in the canonical transcript (CJ). A compound mediated exon-inclusion event was detected by observing an increase in formation of a new junction with an alternative exon (AJ). Real-time qPCR assays were used to detect these splicing switches and interrogate the potency of various compounds towards different target genes. A high-throughput real time quantitative PCR (RT-qPCR) assay was developed to measure these two isoforms of the mRNA (CJ and AJ) for an exemplary gene, HTT, together with a control housekeeping gene, GAPDH or GUSB or PPIA, used for normalization. Briefly, the A673 or K562 cell line was treated with various compounds described herein (e.g., compounds of Formula (I)). After treatment, the levels of the HTT mRNA targets were determined from each sample of cell lysate by cDNA synthesis followed by qPCR.
(§2) • Cells-to-CT 1-step kit: ThermoFisher A25602, Cells-to-CT lysis reagent: ThermoFisher 4391851C, TaqMan™ Fast Virus 1-Step Master Mix: ThermoFisher 4444436 • GAPDH: VIC-PL, ThermoFisher 4326317E (Assay: Hs99999905_ml)—used for K562/suspension cell lines • GUSB: VIC-PL, ThermoFisher 4326320E (Assay: Hs99999908_ml)—used for K562/suspension cell lines • PPIA: VIC-PL, ThermoFisher 4326316E (Assay: Hs99999904_ml)—used for A673/adherent cell lines
(§3) The A673 cell line was cultured in DMEM with 10% FBS. Cells were diluted with full growth media and plated in a 96-well plate (15,000 cells in 100 ul media per well). The plate was incubated at 37° C. with 5% CO2 for 24 hours to allow cells to adhere. An 11-point 3-fold serial dilution of the compounds was made in DMSO then diluted in media in an intermediate plate. Compounds were transferred from the intermediate plate to the cell plate with the top dose at a final concentration of 10 uM in the well. Final DMSO concentration was kept at or below 0.25%. The cell plate was returned to the incubator at 37° C. with 5% CO2 for an additional 24 hours.
(§4) The K562 cell line was cultured in IMDM with 10% FBS. For K562, cells were diluted with full growth media and plated in either a 96-well plate (50,000 cells in 50 uL media per well) or a 384-well plate (8,000-40,000 cells in 45 uL media per well). An 11-point 3-fold serial dilution of the compounds were made in DMSO then diluted in media in an intermediate plate. Compound was transferred from the intermediate plate to the cell plate with the top dose at a final concentration of 10 uM in the well. Final DMSO concentration was kept at or below 0.25%. Final volume was 100 uL for 96-well plate and 50 uL for 384-well plate. The cell plate was then placed in an incubator at 37° C. with 5% CO2 for 24 hours.
(§5) The cells were then gently washed with 50 uL-100 uL cold PBS before proceeding to addition of lysis buffer. 30 uL-50 uL of room temperature lysis buffer with DNAse I (and optionally RNAsin) was added to each well. Cells were shaken/mixed thoroughly at room temperature for 5-10 minutes for lysis to take place and then 3 uL-5 uL of room temperature stop solution was added and wells were shaken/mixed again. After 2-5 minutes, the cell lysate plate was transferred to ice for RT-qPCR reaction setup. The lysates could also be frozen at −80° C. for later use.
(§6) In some cases, a direct lysis buffer was used. An appropriate volume of 3× lysis buffer (10 mM Tris, 150 mM NaCl, 1.5%-2.5% Igepal and 0.1-1 U/uL RNAsin, pH 7.4) was directly added to either K562 or A673 cells in media and mixed by pipetting 3 times. The plates were then incubated at room temperature with shaking/rocking for 20-50 minutes to allow for lysis to take place. After this time, the cell lysate plate was transferred to ice to set up for the RT-qPCR reactions. The lysates could also be frozen at −80° C. for later use. […]

Target C CJ mRNA = assay: Gene panel canonical junction qPCR assay: decrease in Target C CJ mRNA; conditions: protocol as for Table 2, read-out: Target C (IC50, decrease in CJ mRNA levels)
Procedure: as §1, §3, §4, §5
(§7) In some cases, a direct lysis buffer was used. An appropriate volume of 3× lysis buffer (10 mM Tris, 150 mM NaCl, 1.5%-2.5% Igepal and 0.1-1 U/uL RNAsin, pH 7.4) was directly added to either K562 or A673 cells in media and mixed by pipetting 3 times. The plates were then incubated at room temperature with shaking/rocking for 20-50 minutes to allow for lysis to take place. After this time, the cell lysate plate was transferred to ice to set up for the RT-qPCR reactions. The lysates could also be frozen at −80° C. for later use.
(§8) To set up 10 uL RT-qPCR reactions, cell lysates were transferred to 384-well qPCR plates containing the master mix according to the table below. The plates were sealed, gently vortexed, and spun down before the run. The volumes were adjusted accordingly in some instances where the reaction was carried in 20 uL. The table below summarizes the components of the RT-qPCR reactions:
(§9) The RT-qPCR reaction was performed using a QuantStudio (ThermoFisher) under the following fast cycling conditions. […]

[2] = test system: HTT mRNA, alternative junction (AJ); assay: Splicing assay (RT-qPCR): increase in HTT alternative junction (AJ) mRNA; conditions: A673 or K562 cell line, 24 hours treatment, top dose 10 uM; concentration having 50% response in AJ increase
Procedure: as §1, §2, §3, §4, §5, §6

HTT CJ mRNA = assay: Gene panel canonical junction qPCR assay: decrease in HTT CJ mRNA; conditions: protocol as for Table 2, read-out: HTT (IC50, decrease in CJ mRNA levels)
Procedure: as §1, §3, §4, §5, §7, §8, §9

SMN2 CJ mRNA = assay: Gene panel canonical junction qPCR assay: decrease in SMN2 CJ mRNA; conditions: protocol as for Table 2, read-out: SMN2 (IC50, decrease in CJ mRNA levels)
Procedure: as §1, §3, §4, §5, §7, §8, §9

With `Cc1cn2nc(NC(=O)c3ccc(N4CCNCC4)c4ccnnc34)cc(C)c2n1` [Compound 100, N-[2,8-dimethylimidazo[1,2-b]pyridazin-6-yl]-5-(piperazin-1-yl)cinnoline-8-carboxamide] the AC50 [1] was 100 to 1000 nM, the IC50 (Target C CJ mRNA) was 100 to 1000 nM and the AC50 [2] was 100 to 1000 nM. The IC50 (HTT CJ mRNA) was 0.1 to 1 µM and the IC50 (SMN2 CJ mRNA) was 100 to 1000 nM.
Work on `Cc1cn2cc(NC(=O)c3ccc(C4CCN(C)CC4)c4ccnnc34)cc(F)c2n1` [Compound 140, N-[8-fluoro-2-methylimidazo[1,2-a]pyridin-6-yl]-5-(1-methylpiperidin-4-yl) cinnoline-8-carboxamide] yielded an AC50 [1] of 1000 to 10000 nM, an IC50 (Target C CJ mRNA) of over 10000 nM and an AC50 [2] of 1000 to 10000 nM. It also gave an IC50 (HTT CJ mRNA) of 1 to 10 µM and an IC50 (SMN2 CJ mRNA) of under 100 nM.
Molecule `Cc1cn2cc(NC(=O)c3ccc(N4CCC(NC(C)(C)C)CC4)c4ccnnc34)cc(F)c2n1` [Compound 138, 5-[4-(tert-butylamino)piperidin-1-yl]-N-[8-fluoro-2-methylimidazo[1,2-a]pyridin-6-yl]cinnoline-8-carboxamide] has an AC50 [1] of 1000 to 10000 nM, an IC50 (Target C CJ mRNA) of 1000 to 10000 nM and an AC50 [2] of 1000 to 10000 nM. The IC50 (HTT CJ mRNA) was 1 to 10 µM and the IC50 (SMN2 CJ mRNA) was under 100 nM.
With `Cc1cn2cc(NC(=O)c3ccc(N4CC(C)(C)NC(C)(C)C4)c4ccnnc34)cc(F)c2n1` [Compound 104, N-[8-fluoro-2-methylimidazo[1,2-a]pyridin-6-yl]-5-(3,3,5,5-tetramethylpiperazin-1-yl) cinnoline-8-carboxamide] the AC50 [1] was 1000 to 10000 nM and the AC50 [2] was 1000 to 10000 nM.
`Cc1cn2cc(NC(=O)c3ccc(N(C)C4CCN(C)CC4)c4ccnnc34)cc(F)c2n1` [Compound 136, N-[8-fluoro-2-methylimidazo[1,2-a]pyridin-6-yl]-5-[methyl(1-methylpiperidin-4-yl)amino] cinnoline-8-carboxamide] was tested, and the AC50 [1] was 1000 to 10000 nM and the AC50 [2] was 1000 to 10000 nM.
With `Cc1cn2nc(NC(=O)c3ccc(C4CCNCC4)c4ccnnc34)cc(C)c2n1` [Compound 113, N-[2,8-dimethylimidazo[1,2-b]pyridazin-6-yl]-5-(piperidin-4-yl) cinnoline-8-carboxamide] the AC50 [1] was 1000 to 10000 nM, the IC50 (Target C CJ mRNA) was 1000 to 10000 nM and the AC50 [2] was 1000 to 10000 nM. The IC50 (HTT CJ mRNA) was 1 to 10 µM and the IC50 (SMN2 CJ mRNA) was 100 to 1000 nM.
Molecule `Cc1cn2cc(NC(=O)c3ccc(N4CCC(N(C)C)C4)c4ccnnc34)cc(F)c2n1` (stereo not shown) [Compound 134, 5-[3-(dimethylamino)pyrrolidin-1-yl]-N-[8-fluoro-2-methylimidazo[1,2-a]pyridin-6-yl]cinnoline-8-carboxamide] has an AC50 [1] of 1000 to 10000 nM, an IC50 (Target C CJ mRNA) of 1000 to 10000 nM and an AC50 [2] of 1000 to 10000 nM. The IC50 (HTT CJ mRNA) was 1 to 10 µM and the IC50 (SMN2 CJ mRNA) was under 100 nM.
Work on `CCNC1CCN(c2ccc(C(=O)Nc3cc(F)c4nc(C)cn4c3)c3nnccc23)CC1` [Compound 139, 5-[4-(ethylamino)piperidin-1-yl]-N-[8-fluoro-2-methylimidazo[1,2-a]pyridin-6-yl]cinnoline-8-carboxamide] yielded an AC50 [1] of 1000 to 10000 nM and an AC50 [2] of 1000 to 10000 nM.
With `Cc1cn2cc(NC(=O)c3ccc(N4CCNCC4)c4ncnnc34)cc(F)c2n1` [Compound 110, N-[8-fluoro-2-methylimidazo[1,2-a]pyridin-6-yl]-5-(piperazin-1-yl)-1,2,4-benzotriazine-8-carboxamide] the AC50 [1] was 1000 to 10000 nM and the AC50 [2] was 1000 to 10000 nM.
Work on `COc1ccc2c(N3CCNCC3)ccc(-c3cc(F)c4nc(C)cn4c3)c2n1` [Compound 114, 8-[8-fluoro-2-methylimidazo[1,2-a]pyridin-6-yl]-2-methoxy-5-(piperazin-1-yl) quinoline] yielded an AC50 [1] of over 10000 nM, an AC50 [2] of over 10000 nM and an IC50 (HTT CJ mRNA) of over 10 µM. The IC50 (SMN2 CJ mRNA) was over 10000 nM.
`CCC1CN(c2ccc(C(=O)Nc3cc(F)c4nc(C)cn4c3)c3nnccc23)CCN1` (stereo not shown) [Compound 130, 5-(3-ethylpiperazin-1-yl)-N-[8-fluoro-2-methylimidazo[1,2-a]pyridin-6-yl] cinnoline-8-carboxamide hydrochloride] was tested, and the AC50 [1] was 1000 to 10000 nM, the AC50 [2] was 1000 to 10000 nM and the IC50 (HTT CJ mRNA) was 1 to 10 µM. It also gave an IC50 (SMN2 CJ mRNA) of under 100 nM.
Molecule `Cc1cn2cc(NC(=O)c3ccc(N4CCN5CCCC5C4)c4ccnnc34)cc(F)c2n1` (stereo not shown) [Compound 107] has an AC50 [1] of 1000 to 10000 nM and an AC50 [2] of 100 to 1000 nM.
In the case of `Cc1cn2cc(NC(=O)c3ccc(N(C)C4CC(C)(C)NC(C)(C)C4)c4ccnnc34)cc(F)c2n1` [Compound 135, N-[8-fluoro-2-methylimidazo[1,2-a]pyridin-6-yl]-5-[methyl(2,2,6,6-tetramethylpiperidin-4-yl)amino]cinnoline-8-carboxamide], the AC50 [1] is reported as 100 to 1000 nM and the AC50 [2] is reported as 1000 to 10000 nM.
For `Cc1cn2cc(NC(=O)c3ccc(N4CCNC(C)(C)C4)c4ccnnc34)cc(F)c2n1` [Compound 106, 5-(3,3-dimethylpiperazin-1-yl)-N-[8-fluoro-2-methylimidazo[1,2-a]pyridin-6-yl] cinnoline-8-carboxamide hydrochloride], the AC50 [1] was 100 to 1000 nM and the AC50 [2] was 1000 to 10000 nM.
`Cc1cn2cc(NC(=O)c3ccc(N4CCC(NC(C)(C)C)C4)c4ccnnc34)cc(F)c2n1` (stereo not shown) [Compound 109, 5-[3-(tert-butylamino)pyrrolidin-1-yl]-N-[8-fluoro-2-methylimidazo[1,2-a]pyridin-6-yl]cinnoline-8-carboxamide] showed an AC50 [1] of 1000 to 10000 nM, an AC50 [2] of 1000 to 10000 nM and an IC50 (HTT CJ mRNA) of 1 to 10 µM. It also gave an IC50 (SMN2 CJ mRNA) of 100 to 1000 nM.
With `Cc1cn2cc(-c3ccc(N4CCNCC4)c4ccc(O)nc34)cc(F)c2n1` [Compound 144, 8-[8-fluoro-2-methylimidazo[1,2-a]pyridin-6-yl]-5-(piperazin-1-yl)quinolin-2-ol] the AC50 [1] was over 10000 nM, the AC50 [2] was over 10000 nM and the IC50 (HTT CJ mRNA) was over 10 µM. The IC50 (SMN2 CJ mRNA) was over 10000 nM.
Molecule `Cc1cn2cc(NC(=O)c3ccc(N4CCN(C)C(C)C4)c4ccnnc34)cc(F)c2n1` (stereo not shown) [Compound 129, 5-(3,4-dimethylpiperazin-1-yl)-N-[8-fluoro-2-methylimidazo [1,2-a]pyridin-6-yl]cinnoline-8-carboxamide] has an AC50 [1] of 1000 to 10000 nM, an AC50 [2] of 1000 to 10000 nM and an IC50 (HTT CJ mRNA) of 1 to 10 µM. For the same molecule, the IC50 (SMN2 CJ mRNA) was under 100 nM.
With `Cc1cn2cc(NC(=O)c3ccc(N4CCNC5(CC5)C4)c4ccnnc34)cc(F)c2n1` [Compound 105, 5-[4,7-diazaspiro [2.5]octan-7-yl]-N-[8-fluoro-2-methylimidazo[1,2-a]pyridin-6-yl] cinnoline-8-carboxamide hydrochloride] the AC50 [1] was 1000 to 10000 nM and the AC50 [2] was 1000 to 10000 nM.
